Laboratory results reported in patent US7713971B2, “1,2,4-triazine derivatives, preparation and use thereof in human therapy” (Pierre Fabre Medicament, priority 2005, dated 2010).
pEC50: −log10 of the molar value. Where two headings read alike, the source gives them in different places.

Legend:
[1] = target: T1, human PPARγ (Homo sapiens, UniProt P37231); assay: Reporter gene transactivation, hPPAR-GAL4 gamma; assay type: cell-based; settings: transfected Cos-7 cells, Gal-4 luciferase reporter, 24 hours treatment
T1 construct: expressed in transfected cells; host or cells: Cos-7 cells (ATCC, CRL-1651)
T1 sequence (P37231 238-503 limits assumed): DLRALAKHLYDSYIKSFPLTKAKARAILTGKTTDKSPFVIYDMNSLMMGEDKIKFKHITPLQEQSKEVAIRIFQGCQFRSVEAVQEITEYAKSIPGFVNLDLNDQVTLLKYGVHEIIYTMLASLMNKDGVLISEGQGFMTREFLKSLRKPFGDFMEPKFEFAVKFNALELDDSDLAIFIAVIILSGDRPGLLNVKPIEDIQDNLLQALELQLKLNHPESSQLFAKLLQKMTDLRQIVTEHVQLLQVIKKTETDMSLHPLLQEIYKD

[2] = target: T2, human PPARα (Homo sapiens, UniProt Q07869); assay: Reporter gene transactivation, hPPAR-GAL4 alpha; assay type: cell-based; settings: transfected Cos-7 cells, Gal-4 luciferase reporter, 24 hours treatment
T2 construct: expressed in transfected cells; host or cells: Cos-7 cells (ATCC, CRL-1651)
T2 sequence (Q07869 239-466 limits assumed): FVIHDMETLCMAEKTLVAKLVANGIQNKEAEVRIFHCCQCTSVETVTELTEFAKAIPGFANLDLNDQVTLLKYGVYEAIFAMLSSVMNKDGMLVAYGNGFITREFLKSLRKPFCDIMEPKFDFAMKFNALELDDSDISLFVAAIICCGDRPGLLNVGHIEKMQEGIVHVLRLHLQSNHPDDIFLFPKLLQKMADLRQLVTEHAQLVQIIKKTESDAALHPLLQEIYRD

[3] = test system: insulin-resistant male rat (Ico: ZUCKER-fa/fa); assay: Normalization of metabolic parameters (cholesterol, plasma triglycerides) in insulin-resistant rat; assay type: in vivo; settings: oral route, once per day for four days, Zucker fa/fa rat unfed 16-18 hours; for change in vivo at 2.5 mg/kg / change in vivo at 10 mg/kg: 96 h
Procedure: Normalization of metabolic parameters (cholesterol, plasma triglycerides) in an insulin-resistant male rat (Ico: ZUCKER-fa/fa), unfed for 16-18 hours, after treatment by oral route, once per day for four days, with the compounds to be evaluated or their administration vehicle.
These metabolic parameters are measured by spectrophotometry at the beginning and the end of each animal's treatment.

[4] = at 10 mg/kg, read-out: Plasma cholesterol
[5] = at 10 mg/kg, read-out: Plasma triglycerides

Compound	pEC50 [1]	pEC50 [2]	other results
CCCCCCCn1nc(OCCCCCc2cccc(OC(C)(C)C(=O)OCC)c2)c(=O)n(C)c1=O [Example 10, Ethyl 2-{3-[5-(2-heptyl-4-methyl-3,5-dioxo-2,3,4,5-tetrahydro-[1,2,4]triazin-6-yloxy)-pentyl]-phenoxy}-2-methyl-propionate]	~6.00	6.00 to 6.52	
CCOC(=O)C(C)(C)Oc1ccc(CCNc2nn(CCCC3CCCCC3)c(=O)n(CCCC(F)(F)F)c2=O)cc1 [Example 105, Ethyl 2-(4-{2-[2-(3-cyclohexyl-propyl)-3,5-dioxo-4-(4,4,4-trifluoro-butyl)-2,3,4,5-tetrahydro-[1,2,4]triazin-6-ylamino]-ethyl}-phenoxy)-2-methyl-propionate]	~5.00	5.52 to 6.00	
CCCCCCCn1c(=O)c(NCCCCc2cccc(OC(C)(C)C(=O)OCC)c2)nn(CCC#N)c1=O [Example 86, Ethyl 2-(3-{4-[2-(2-cyano-ethyl)-4-heptyl-3,5-dioxo-2,3,4,5-tetrahydro-[1,2,4]triazin-6-ylamino]-butyl}-phenoxy)-2-methyl-propionate]	~6.00	< 5.00	
CCOC(=O)C(C)(C)Oc1cccc(CCCCCOc2nn(CCCC(F)(F)F)c(=O)n(C)c2=O)c1 [Example 9, Ethyl 2-methyl-2-(3-{5-[4-methyl-3,5-dioxo-2-(4,4,4-trifluoro-butyl)-2,3,4,5-tetrahydro-[1,2,4]triazin-6-yloxy]-pentyl}-phenoxy)-propionate]	~5.00	5.00 to 5.52	
CCCCCCCn1c(=O)c(NCCCCc2cccc(OC(C)(C)C(=O)OCC)c2)nn(C/C=C/C(=O)OCC)c1=O [Example 87, Ethyl 4-(6-{4-[3-(1-ethoxycarbonyl-1-methyl-ethoxy)-phenyl]-butylamino}-4-heptyl-3,5-dioxo-4,5-dihydro-3H-[1,2,4]triazin-2-yl)-but-2-enonate]	6.52 to 7.00	~6.52	
CCCCCCCn1nc(NCCCCc2cccc(SC(C)(C)C(=O)OCC)c2)c(=O)n(C)c1=O [Example 94, Ethyl 2-{3-[4-(2-heptyl-4-methyl-3,5-dioxo-2,3,4,5-tetrahydro-[1,2,4]triazin-6-ylamino)-butyl]-phenylsulfanyl}-2-methyl-propionate]	5.00 to 5.52	5.00 to 5.52	
CCOC(=O)/C=C/Cn1nc(NCCc2ccc(OC(C)(C)C(=O)OCC)cc2)c(=O)n(CCCC(F)(F)F)c1=O [Example 104, Ethyl 4-[6-{2-[4-(1-ethoxycarbonyl-1-methyl-ethoxy)-phenyl]-ethylamino}-3,5-dioxo-4-(4,4,4-trifluoro-butyl)-4,5-dihydro-3H-[1,2,4]triazin-2-yl]-but-2-enoate]	< 5.00	5.52 to 6.00	
CCCCCCCn1nc(NCCCc2cccc(OC(C)(C)C(=O)OCC)c2)c(=O)n(C)c1=O [Example 64, Ethyl 2-{3-[3-(2-heptyl-4-methyl-3,5-dioxo-2,3,4,5-tetrahydro-[1,2,4]triazin-6-ylamino)-propyl]-phenoxy}-2-methyl-propionate]	5.00 to 5.52	< 5.00	
CCCCCCCn1c(=O)c(OCCCCCc2cccc(OC(C)(C)C(=O)OCC)c2)nn(Cc2ccccc2)c1=O [Example 19, Ethyl 2-{3-[5-(2-benzyl-4-heptyl-3,5-dioxo-2,3,4,5-tetrahydro-[1,2,4]triazin-6-yloxy)-pentyl]-phenoxy}-2-methyl-propionate]	5.00 to 5.52	~5.52	
CCCCCCCn1c(=O)c(OCCCc2cccc(OC(C)(C)C(=O)OCC)c2)nn(CCCC(F)(F)F)c1=O [Example 8, Ethyl 2-(3-{3-[4-heptyl-3,5-dioxo-2-(4,4,4-trifluoro-butyl)-2,3,4,5-tetrahydro-[1,2,4]triazin-6-yloxy]-propyl}-phenoxy)-2-methyl-propionate]	5.00 to 5.52	~6.52	
CCCCCCCn1nc(N(CCCOc2cccc(OC(C)(C)C(=O)OCC)c2)CCCC(F)(F)F)c(=O)n(C)c1=O [Example 51, Ethyl 2-(3-{3-[(2-heptyl-4-methyl-3,5-dioxo-2,3,4,5-tetrahydro-[1,2,4]triazin-6-yl)-(4,4,4-trifluoro-butyl)-amino]-propoxy}-phenoxy)-2-methyl-propionate]	< 5.00	5.00 to 5.52	
CCCCCCCn1nc(OCCCOc2cccc(SC(C)(C)C(=O)OCC)c2)c(=O)n(C)c1=O [Example 34, Ethyl 2-{3-[3-(2-heptyl-4-methyl-3,5-dioxo-2,3,4,5-tetrahydro-[1,2,4]triazin-6-yloxy)-propoxy]-phenylsulfanyl}-2-methyl-propionate]	< 5.00	< 5.00	
CCCCCCCn1nc(NCCCCc2cccc(OC(C)(C)C(=O)OCC)c2)c(=O)n(CCCCCCC)c1=O [Example 88, Ethyl 2-{3-[4-(2,4-diheptyl-3,5-dioxo-2,3,4,5-tetrahydro-[1,2,4]triazin-6-ylamino)-butyl]-phenoxy}-2-methyl-propionate]	~5.00	~6.52	
CCCCCCCn1c(=O)c(NCCCCc2cccc(SC(C)(C)C(=O)OCC)c2)nn(Cc2ccccc2)c1=O [Example 99, Ethyl 2-{3-[4-(2-benzyl-4-heptyl-3,5-dioxo-2,3,4,5-tetrahydro-[1,2,4]triazin-6-ylamino)-butyl]-phenylsulfanyl}-2-methyl-propionate]	5.00 to 5.52	< 5.00	
CCCCCCCn1c(=O)c(NCCc2cccc(OC(C)(C)C(=O)OCC)c2)nn(C)c1=O [Example 59, Ethyl 2-{3-[2-(4-heptyl-2-methyl-3,5-dioxo-2,3,4,5-tetrahydro-[1,2,4]triazin-6-ylamino)-ethyl]-phenoxy}-2-methyl-propionate]		5.52 to 6.00	change in vivo at 2.5 mg/kg ([3]; read-out: Plasma cholesterol): -37%; change in vivo at 2.5 mg/kg ([3]; read-out: Plasma triglycerides): -13%
Cn1c(=O)c(NCCc2ccc(SC(C)(C)C(=O)O)cc2)nn(CCCC(F)(F)F)c1=O [Example 118, 2-Methyl-2-(4-{2-[4-methyl-3,5-dioxo-2-(4,4,4-trifluoro-butyl)-2,3,4,5-tetrahydro-[1,2,4]triazin-6-ylamino]-ethyl}-phenylsulfanyl)-propionic Acid]	~5.00	5.52 to 6.00	
CCCCCCCn1nc(OCCCCOc2cccc(OC(C)(C)C(=O)OCC)c2)c(=O)n(C)c1=O [Example 36, Ethyl 2-{3-[4-(2-heptyl-4-methyl-3,5-dioxo-2,3,4,5-tetrahydro-[1,2,4]triazin-6-yloxy)-butoxy]-phenoxy}-2-methyl-propionate]	5.00 to 5.52	6.00 to 6.52	
CCCCCCCn1nc(OCCc2ccc(OC(C)(C)C(=O)OCC)cc2)c(=O)n(C)c1=O [Example 25, Ethyl 2-{4-[2-(2-heptyl-4-methyl-3,5-dioxo-2,3,4,5-tetrahydro-[1,2,4]triazin-6-yloxy)-ethyl]-phenoxy}-2-methyl-propionate]	< 5.00		
CCCCCCCN(CCCOc1ccc(SC(C)(C)C(=O)OCC)cc1)c1nn(C)c(=O)n(C)c1=O [Example 53, Ethyl 2-(4-{3-[(2,4-Dimethyl-3,5-dioxo-2,3,4,5-tetrahydro-[1,2,4]triazin-6-yl)-heptyl-amino]-propoxy}-phenylsulfanyl)-2-methyl-propionate]		5.52 to 6.00	change in vivo at 2.5 mg/kg ([3]; read-out: Plasma cholesterol): -7%; change in vivo at 10 mg/kg [3, 4]: -28%; Plasma triglycerides ([3]; at 10 mg/kg): inactive at 10
CCOC(=O)C(C)(C)Oc1ccc(OCCCNc2nn(C)c(=O)n(CCCC(F)(F)F)c2=O)cc1 [Example 46, Ethyl 2-methyl-2-(4-{3-[2-methyl-3,5-dioxo-4-(4,4,4-trifluoro-butyl)-2,3,4,5-tetrahydro-[1,2,4]triazin-6-ylamino]-propoxy}-phenoxy)-propionate]		6.00 to 6.52	change in vivo at 10 mg/kg [3, 4]: -13%; change in vivo at 10 mg/kg [3, 5]: -32%
CCCCCCCn1c(=O)c(NCCCc2cccc(OC(C)(C)C(=O)OCC)c2)nn(C)c1=O [Example 67, Ethyl 2-{3-[3-(4-heptyl-2-methyl-3,5-dioxo-2,3,4,5-tetrahydro-[1,2,4]triazin-6-ylamino)-propyl]-phenoxy}-2-methyl-propionate]		~6.00	change in vivo at 10 mg/kg [3, 4]: -14%; change in vivo at 10 mg/kg [3, 5]: -23%
CCOC(=O)C(C)(C)Oc1ccc(OCCNc2nn(CCCC3CCCCC3)c(=O)n(CCCC3CCCCC3)c2=O)cc1 [Example 43, Ethyl 2-(4-{2-[2,4-bis-(3-cyclohexylpropyl)-3,5-dioxo-2,3,4,5-tetrahydro-[1,2,4]triazin-6-ylamino]-ethoxy}-phenoxy)-2-methyl-propionate]		~5.52	
CCCCCCCn1nc(OCCCc2cccc(SC(C)(C)C(=O)OCC)c2)c(=O)n(C)c1=O [Example 32, Ethyl 2-{3-[3-(2-heptyl-4-methyl-3,5-dioxo-2,3,4,5-tetrahydro-[1,2,4]triazin-6-yloxy)-propyl]-phenylsulfanyl}-2-methyl-propionate]		5.52 to 6.00	
